Experimental findings from patent US8883789B2, “Piperazine derivatives and their use as positive allosteric modulators of mGluR5 receptors” (Boehringer Ingelheim International GmbH, priority 2011, dated 2014) are described below.

For this experiment, the target named is T1, human recombinant mGluR5 (Homo sapiens, UniProt P41594).
T1 construct: expressed in transfected cells; hygromycin and geneticin selection
T1 sequence (P41594 21-1212): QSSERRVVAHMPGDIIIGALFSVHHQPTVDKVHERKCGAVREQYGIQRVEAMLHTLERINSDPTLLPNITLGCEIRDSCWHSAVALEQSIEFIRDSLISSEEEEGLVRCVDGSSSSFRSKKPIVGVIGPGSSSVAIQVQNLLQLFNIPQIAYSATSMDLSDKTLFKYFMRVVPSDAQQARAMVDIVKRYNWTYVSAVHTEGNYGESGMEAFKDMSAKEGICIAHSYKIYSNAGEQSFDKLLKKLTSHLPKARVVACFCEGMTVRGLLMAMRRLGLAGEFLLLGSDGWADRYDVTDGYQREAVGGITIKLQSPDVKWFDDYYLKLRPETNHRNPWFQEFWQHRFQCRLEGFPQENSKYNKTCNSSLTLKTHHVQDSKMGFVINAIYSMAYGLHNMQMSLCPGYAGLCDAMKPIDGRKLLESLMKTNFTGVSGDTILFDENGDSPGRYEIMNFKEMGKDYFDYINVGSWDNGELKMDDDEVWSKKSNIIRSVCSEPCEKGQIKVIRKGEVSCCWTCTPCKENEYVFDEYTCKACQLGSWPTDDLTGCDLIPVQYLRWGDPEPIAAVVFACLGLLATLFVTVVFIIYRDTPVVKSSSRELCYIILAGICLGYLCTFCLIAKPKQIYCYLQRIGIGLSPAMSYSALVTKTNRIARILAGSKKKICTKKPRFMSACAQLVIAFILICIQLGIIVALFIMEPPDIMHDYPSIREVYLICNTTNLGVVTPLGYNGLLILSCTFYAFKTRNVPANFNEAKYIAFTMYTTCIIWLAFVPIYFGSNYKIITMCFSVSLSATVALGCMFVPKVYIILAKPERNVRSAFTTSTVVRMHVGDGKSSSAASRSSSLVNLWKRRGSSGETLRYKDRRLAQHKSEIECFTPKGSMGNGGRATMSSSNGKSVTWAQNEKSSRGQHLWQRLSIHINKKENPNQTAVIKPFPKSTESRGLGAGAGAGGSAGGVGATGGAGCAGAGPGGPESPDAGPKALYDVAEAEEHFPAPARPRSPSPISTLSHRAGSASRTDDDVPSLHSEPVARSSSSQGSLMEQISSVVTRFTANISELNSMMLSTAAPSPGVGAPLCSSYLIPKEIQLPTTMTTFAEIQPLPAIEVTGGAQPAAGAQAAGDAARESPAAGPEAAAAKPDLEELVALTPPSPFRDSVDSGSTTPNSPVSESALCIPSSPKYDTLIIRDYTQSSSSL
Put plainly: positive modulation of mGluR5, calcium based FLIPR assay. Conditions: HEK 293 cell line expressing human recombinant mGluR5; Ca2+ peak height after glutamate at approximately 5% basal stimulation; nonlinear regression. In a few lines:
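HEK293 cells with tetracycline-free induction, Calcium-4 dye-loaded in Ringer pH 7.4. Compound added 5 min before glutamate at ~5% of maximal effect, 1% DMSO. EC50 from peak Ca2+ fluorescence, normalized to basal glutamate (100%) and 10 μM CDPPB (200%), via nonlinear regression.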
One may read the EC50 as the concentration at which the effect is half-maximal. Take `CC1(C)CN(C(=O)c2cc(Cl)c3c(c2)OCCO3)CCN1C(=O)c1ncn(-c2ccccc2)n1` [Example 104]: the EC50 is 50 nM.

In the case of `CC1(C)CN(C(=O)c2cc(Cl)cc(C(F)(F)F)c2)CCN1C(=O)c1ncn(-c2cccc(Cl)c2)n1` [Example 29], the EC50 stood at 109 nM.

As to `CC1CN(C(=O)c2ccc3ccn(C)c3c2)CCN1C(=O)c1ncn(-c2cccc(Cl)c2)n1` (stereo not drawn) [Example 272], the EC50 came out at 350 nM.

In the case of `CC1(C)CN(C(=O)c2cccc(OC(F)(F)F)c2)CCN1C(=O)c1ncn(-c2cccc(Cl)c2)n1` [Example 37], the EC50 is 388 nM.

As to `CC1(C)CN(C(=O)c2cc(Cl)cc(Cl)c2)CCN1C(=O)c1ncn(-c2ccccc2)n1` [Example 153], the EC50 stood at 101 nM.

For the compound `COc1cc(C(=O)N2CCN(C(=O)c3ncn(-c4ccccc4)n3)C(C)C2)ccc1C` (stereo not drawn) [Example 292], the EC50 turned out to be 1210 nM.
